Results from article PMC3001885, “Metabolic Activity and mRNA Levels of Human Cardiac CYP450s Involved in Drug Metabolism” (PLoS ONE, 2010).

Experiments:
[1] = tested on: CYP450s in human heart microsomes; experiment: Inhibition of verapamil metabolite formation in human heart microsomes by chemical inhibitors; conditions: inhibitor 100 µM, verapamil 400 µM
human heart microsomes = experiment: Verapamil metabolism in human heart microsomes (formation of metabolites, HPLC); format: in vitro ADME
Description: The HPLC system (Thermo Separation products, Fremont, CA) consisted of a SpectraSystem P4000 pump, a SpectraSystem AS3000 autosampler, a FL3000 fluorescence detector, a SpectraSystem UV3000 ultraviolet detector and PC1000 System Software.
Frozen samples of human heart ventricles (4–10 g) were immersed in cold phosphate buffer 100 mM (pH 7.4) containing potassium chloride 150 mM, EDTA 1 mM, dithiotreitol 0.5 mM and PMSF 0.01 mM (1∶3, w/v). Tissue was roughly sliced prior to homogenization using a Polytron. The resulting suspension was sonicated 3 times for 5–10 seconds. Homogenization and sonication were performed on ice. Microsomal fractions were isolated by centrifugation at 10,000 g for 20 minutes. The resulting supernatant was centrifuged twice at 100,000 g for 2 consecutive 90-minute periods. The final microsomal pellet was resuspended in a phosphate buffer 100 mM (pH 7.4), potassium chloride 150 mM and EDTA 1 mM. All procedures were performed at 4°C. […] The leftover heart microsomes were immediately shock frozen in liquid nitrogen for subsequent protein quantification. Microsomal heart proteins were quantified using a BCA Pierce kit.
All microsomal incubations were performed in duplicate.
Incubations containing microsomes, buffer and NADPH-regenerating system solution were pre-incubated at 37°C for 10 minutes. […] The enzymatic process was stopped by adding 500 µL of ice-cold acetonitrile. Different incubation times were assessed: 15 minutes to 4 hours. Incubation mixtures were centrifuged at 15,000 rpm for 10 minutes.
A series of incubations was also performed with previously inactivated human heart microsomes. The CYP450 proteins were inactivated by heating microsomes at 60°C for 10 minutes. Incubations were also conducted in the presence of nitrogen gas or carbon monoxide gas in replacement of ambient air to inactivate CYP450s.

[2] = left ventricular microsomes, n = 20, substrate verapamil
[3] = microsomes prepared from right ventricles, n = 8, substrate verapamil

decrease in formation of all major verapamil metabolites [1] | Structure (SMILES) | formation rate of verapamil metabolites, median (range; minimum-maximum values) (human heart microsomes; [2]) | formation rate of verapamil metabolites, median (range; minimum-maximum values) (human heart microsomes; [3])
more than 80% | CCCCCCCCN [N-octylamine] |  | 
 | COc1cc(C(C#N)(CCCNCCc2ccc(OC)c(OC)c2)C(C)C)ccc1O (stereo not drawn) [PR22] | 27 (2.1–76) pmol/min/mg of heart microsomal proteins | 21 (3.7–64.4) pmol/min/mg of heart microsomal proteins
more than 80% | CCCC(C(=O)OCCN(CC)CC)(c1ccccc1)c1ccccc1 [SKF525] |  | 
 | COc1ccc(CCNCCCC(C#N)(c2ccc(OC)c(OC)c2)C(C)C)cc1OC (stereo not drawn) [norverapamil] | 25 (5.8–214) pmol/min/mg of heart microsomal proteins | 39 (5.8–145) pmol/min/mg of heart microsomal proteins
